In PubChem BioAssay (NCI) one finds GI50 and TGI data, which are given here for nine molecules.

Where “and” joins values, the source holds several entries; their conditions need not be identical. Identical values can stand only once.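 Assay format: 96-well plates, 48-hour exposure. GI50: concentration for 50% inhibition of growth. TGI denotes the concentration required for complete inhibition of growth.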

Some test systems named below: HCT-116 colon; CAKI-1 renal; SK-MEL-28 melanoma; MOLT-4 leukemia; ACHN renal; MALME-3M melanoma; NCI/ADR-RES ovarian; RPMI-8226 leukemia; HT29 colon; HCT-15 colon.
Holding throughout (assay): growth of human tumour cells (NCI), 48 h

`CCSc1nc(SCC)c2cn[nH]c2n1`: the GI50 in the assay with HCT-116 colon is 36.6 µM; in the assay on CAKI-1 renal it was 22.9 µM; with SK-MEL-28 melanoma, 64.6 µM; with MOLT-4 leukemia, > 100 µM; in the assay with ACHN renal, 44.3 µM; with MALME-3M melanoma, > 100 µM. Further, the GI50 in the assay on NCI/ADR-RES ovarian is > 100 µM; in the assay on RPMI-8226 leukemia, 40.2 µM; in the assay with HT29 colon, 62.9 µM; in the assay on HCT-15 colon, 66.3 µM. The TGI with HCT-116 colon was > 100 µM; with CAKI-1 renal, 74.6 µM; in the assay on SK-MEL-28 melanoma it was > 100 µM; with MOLT-4 leukemia, > 100 µM; in the assay on ACHN renal, > 100 µM; in the assay on MALME-3M melanoma, > 100 µM. Further, the TGI in the assay with NCI/ADR-RES ovarian, in the assay on RPMI-8226 leukemia, with HT29 colon and in the assay on HCT-15 colon was > 100 µM throughout.
For `COc1ccc(CC2NCCc3cc(OC)c(OC)cc32)cc1Br` (stereo not drawn), the TGI with HCT-116 colon is 36.9 µM; with CAKI-1 renal, > 100 µM; in the assay on SK-MEL-28 melanoma, 33.7 µM; with MOLT-4 leukemia it was 73.3 µM; in the assay with ACHN renal, > 100 µM; in the assay on MALME-3M melanoma it was 34.3 µM. Also, the TGI was > 100 µM in the assay with NCI/ADR-RES ovarian, 50.2 µM in the assay on RPMI-8226 leukemia, 57.9 µM in the assay with HT29 colon and > 100 µM in the assay with HCT-15 colon.
As for `COc1ccc(C(=O)COc2ccc(/C=C3\COc4ccc(OC)cc4C3=O)cc2)cc1`, the GI50 in the assay with HCT-116 colon was 11.1 µM; with CAKI-1 renal it was 32.4 µM; with SK-MEL-28 melanoma it was 19.9 µM; with MOLT-4 leukemia it was 9.36 µM; in the assay with ACHN renal, 29.7 µM; in the assay with MALME-3M melanoma, 57.2 µM. For the same molecule, the GI50 was 12 µM in the assay with NCI/ADR-RES ovarian, 3.47 µM in the assay on RPMI-8226 leukemia, 22.2 µM with HT29 colon and 22.3 µM with HCT-15 colon. Moreover, the TGI with HCT-116 colon was 31.1 µM; in the assay on CAKI-1 renal it was > 100 µM; in the assay on SK-MEL-28 melanoma, 56.9 µM; in the assay on MOLT-4 leukemia, 51.6 µM; in the assay on ACHN renal it was > 100 µM; in the assay on MALME-3M melanoma it was > 100 µM. Further, the TGI in the assay with NCI/ADR-RES ovarian was 32.3 µM; in the assay with RPMI-8226 leukemia it was 22.6 µM; in the assay with HT29 colon, > 100 µM; in the assay with HCT-15 colon it was > 100 µM.
As to `O=c1c2ccccc2c(=O)c2c1[nH]c1c(-c3ccccc3)c(-c3ccccc3)c(=O)c12`, the GI50 was 2.31 µM with HCT-116 colon; 1.93 µM with CAKI-1 renal; 3.51 µM in the assay with SK-MEL-28 melanoma; 1.92 µM with MOLT-4 leukemia; 1.93 µM with ACHN renal; 2.24 µM with MALME-3M melanoma. For the same molecule, the GI50 with NCI/ADR-RES ovarian was 3.76 µM; with RPMI-8226 leukemia, 2.07 µM; in the assay on HT29 colon, 4.29 µM; in the assay with HCT-15 colon it was 1.31 µM. In addition, the TGI was 4.87 µM with HCT-116 colon; 4.99 µM in the assay with CAKI-1 renal; 14.3 µM in the assay on SK-MEL-28 melanoma; 13.3 µM with MOLT-4 leukemia; 3.62 µM in the assay with ACHN renal; 8.19 µM in the assay on MALME-3M melanoma. Also, the TGI in the assay with NCI/ADR-RES ovarian was 21.7 µM; in the assay on RPMI-8226 leukemia, 12 µM; in the assay with HT29 colon it was > 100 µM; in the assay on HCT-15 colon it was 4.22 µM.
Consider `Clc1ccc(C=Nc2ccc3c(c2)Cc2ccccc2-3)c(Cl)c1`, for which the TGI in the assay with HCT-116 colon, in the assay with CAKI-1 renal, in the assay on SK-MEL-28 melanoma, in the assay with MOLT-4 leukemia, in the assay with ACHN renal and in the assay on MALME-3M melanoma was > 100 µM throughout. Further, the TGI in the assay on NCI/ADR-RES ovarian, with RPMI-8226 leukemia, in the assay on HT29 colon and in the assay with HCT-15 colon was > 100 µM throughout.
`O=c1cc(NC2CCN(CCCc3ccccc3)CC2)c2cc(Cl)ccc2o1`: the GI50 in the assay on HCT-116 colon was 4.02 µM; in the assay with CAKI-1 renal it was 12.4 µM; in the assay on SK-MEL-28 melanoma, 11.1 µM; with MOLT-4 leukemia, 8.26 µM; with ACHN renal, 4.86 µM; in the assay on MALME-3M melanoma, 11.2 µM. In addition, the GI50 in the assay with NCI/ADR-RES ovarian is 15 µM; with RPMI-8226 leukemia, 16.5 µM; with HT29 colon it was 4.6 µM; with HCT-15 colon it was 3.89 µM. The TGI amounted to 16.5 µM with HCT-116 colon; 25.6 µM in the assay on CAKI-1 renal; 23.9 µM with SK-MEL-28 melanoma; 37.9 µM in the assay with MOLT-4 leukemia; 17.6 µM with ACHN renal; 25.4 µM in the assay with MALME-3M melanoma. Moreover, the TGI with NCI/ADR-RES ovarian stood at 30.4 µM; in the assay with RPMI-8226 leukemia, 43.4 µM; in the assay with HT29 colon it was 19.5 µM; in the assay on HCT-15 colon, 17.4 µM.
As to `CCCSc1nc(COC(=O)NC)c(COC(=O)NC)n1C`, the TGI with HCT-116 colon was > 100 µM; with CAKI-1 renal, > 100 µM; in the assay with SK-MEL-28 melanoma, > 100 µM; in the assay on MOLT-4 leukemia, 56.6 µM and > 70 µM; in the assay on ACHN renal, 72.3 µM; in the assay with MALME-3M melanoma it was > 100 µM. Besides, the TGI in the assay on NCI/ADR-RES ovarian was > 100 µM; in the assay on RPMI-8226 leukemia it was 57.4 µM and > 94.9 µM; with HT29 colon it was > 100 µM; with HCT-15 colon, > 100 µM.
Take `C#Cc1c(I)n(C2OC(CO[Si](C)(C)C(C)(C)C)C3OC(C)(C)OC32)c(=O)[nH]c1=O` (stereo not drawn): the GI50 is 2.78 µM in the assay on HCT-116 colon; 11.6 µM in the assay with CAKI-1 renal; 2 µM with SK-MEL-28 melanoma; 2.17 µM with MOLT-4 leukemia; 17.8 µM in the assay with ACHN renal; 2.41 µM with MALME-3M melanoma. Also, the GI50 in the assay with NCI/ADR-RES ovarian was 23.5 µM; in the assay with RPMI-8226 leukemia it was 3.63 µM; with HT29 colon, 19.2 µM; in the assay with HCT-15 colon it was 4.09 µM. In addition, the TGI with HCT-116 colon worked out at 10.1 µM; in the assay with CAKI-1 renal, 24.8 µM; in the assay on SK-MEL-28 melanoma it was 4.43 µM; in the assay with MOLT-4 leukemia, 6.69 µM; in the assay on ACHN renal it was 39.7 µM; with MALME-3M melanoma it was 6.59 µM. Also, the TGI with NCI/ADR-RES ovarian was 59.1 µM; in the assay with RPMI-8226 leukemia it was 13.7 µM; with HT29 colon, 52.2 µM; in the assay on HCT-15 colon, > 100 µM.
As for `CCc1nc(C(N)=O)c(Nc2ccc(N3CCC(N4CCN(C)CC4)CC3)c(OC)c2)nc1NC1CCOCC1`, the GI50 in the assay with HCT-116 colon was 1.39 µM and 0.34 µM and 1.23 µM; in the assay with CAKI-1 renal, 1.24 µM and 0.236 µM and 1.21 µM; with SK-MEL-28 melanoma, 5.04 µM and 0.641 µM and 3.51 µM; in the assay with MOLT-4 leukemia it was 3.55 µM and 0.794 µM and 4.06 µM; in the assay on ACHN renal it was 2.07 µM and 0.42 µM and 1.48 µM; in the assay with MALME-3M melanoma, 0.946 µM and 0.239 µM and 0.764 µM. Besides, the GI50 in the assay on NCI/ADR-RES ovarian is 4.33 µM and 3.75 µM and 5.19 µM; in the assay on HT29 colon it was 0.569 µM and 0.251 µM and 0.467 µM; with HCT-15 colon it was 1.68 µM and 0.38 µM and 1.41 µM. Also, the TGI in the assay on HCT-116 colon was 14.1 µM and > 10 µM and 14.9 µM; in the assay on CAKI-1 renal it was 12.9 µM and > 10 µM and 13.4 µM; with SK-MEL-28 melanoma, 21.2 µM and > 2.91 µM and 19.1 µM; in the assay with MOLT-4 leukemia, 21.5 µM and > 2.7 µM and 25.4 µM; in the assay with ACHN renal, 17.1 µM and > 10 µM and 15.4 µM; in the assay with NCI/ADR-RES ovarian, 22.2 µM and > 10 µM and 26.8 µM. Moreover, the TGI was 30.8 µM and > 2.71 µM and 36.4 µM in the assay on RPMI-8226 leukemia; > 43.8 µM in the assay on HT29 colon; 15.7 µM and > 10 µM and 16 µM with HCT-15 colon.
